Read-outs that look alike come from different tables or passages of the source. Marks after values point to notes of the source that are not given here.
How the values were obtained:
mice stomach [1] = format: in vivo; conditions: for Average ulcerogenic index (4-point scale) of chronic administration of pharmacological dose: mice, per os 7 days, compound 2 200 mg/kg, indomethacin 20 mg/kg, voltaren 50 mg/kg, aminoguanidine 200 mg/kg; for Ulcerogenic effects of drugs of comparison: mice ulceration models, summary of table 4
Description: (§1) Studies were performed according to the following scheme: • 1. […] Study of the compounds' ulcerogenic action using pharmaceutical dose during 7 days of administration. • 3. Aggravation of ulcerogenic effects of studied compounds by 0.6H hydrochloric acid. • 4. Aggravation of ulcerogenic effects of studied compounds by the known NSAIDs (indomethacin). 1.
(§2) Ulcerogenic effect was assessed using 4-point scale: 0—no damage; 0.5—hyperemia; 1—insignificant damage (1 or 2 small bleedings); 2—multiple damage (erosions, small bleedings); 3—significant and multiple damage (erosions, bleedings); 4—severe damage, affecting all gastric mucosa (massive bleedings, erosions, perforations).
After 7 days the animals were sacrificed by CO2, their stomachs extracted and the number of ulcers counted.
(§3) Drugs of comparison: indomethacin 20 mg/kg, voltaren—50 mg/kg and aminoguanidine—200 mg/kg. Each test group had 10 animals.

mice stomach [2] = test: Aggravation of ulcerogenic effect by indomethacin; format: in vivo; conditions: mice; compound 2 100 mg/kg, voltaren 50 mg/kg, aminoguanidine 200 mg/kg, 1 hour before indomethacin 20 mg/kg; after 5 hours
Description: as §1, §2
(§4) Male mice with body mass 23-24 g were deprived of food for 24 hours, water access was not limited.
Drugs of comparison: voltaren—50 mg/kg and aminoguanidine—200 mg/kg. Each test group had 10 animals.

[3] = molecular target: inducible isoenzymes of NO-synthase (Homo sapiens, UniProt P35228); conditions: most in vitro systems; cited from earlier work
[4] = test system: LPS-induced peritonitis in rats; test: LPS-induced peritonitis in rats, volume of exudate; format: in vivo; conditions: rats; for ED50: LPS-induced peritonitis, per os
Description: (§5) Anti-exudative action was studied in male rate with body mass 170.0-180.0 g. Peritonitis was induced by intraperitoneal administration of lipopolysaccharide (LPS), produced from Escherichia coli (Sigma)—1.0 mg/kg as described in [6]: after 4 hours the animals were sacrificed by CO2, their peritoneal cavity opened and the volume of exudate was measured in ml. Studied compounds and drugs of comparison were administered per os one hour before LPS, control group was composed of rats receiving 0.3 ml of saline before LPS administration. Each group had 7 animals.
(§6) The results were processed using variation statistics methods for biological research (mean standard error, means were calculated using Student's t-distribution).

[5] = test system: constitutive forms of NO-synthase; conditions: compared with L-NMMA; cited from earlier work
[6] = test system: LPS-induced peritonitis in mice; test: LPS-induced peritonitis in mice, volume of exudate; format: in vivo
Description: Activity was studies using the methods listed in “Methodical recommendations on experimental (preclinical) research of new nonsteroidal anti-inflammatory drugs” for new compounds screening, in animal models of peritonitis induced by lipopolysaccharide (LPS) and carrageenan.
as §5, with “mice” for “rate”, “mice 22.0-23.0” for “mass 170.0-180.0”, “(Sigma) 1.0 mg/kg,” for “(Sigma)—1.0 mg/kg”, “mice” for “rats”, “10” for “7”
as §6

[7] = test system: carrageenan-induced peritonitis in mice; test: Carrageenan-induced peritonitis in mice, volume of exudate; format: in vivo
Description: Research was carried out by a method described in [5]. Experiments were performed using male mice with body mass 23-24 g, in groups of 10 animals. […] The results were processed using variation statistics methods for biological research (mean standard error, means were calculated using Student's t-distribution).

mice stomach [8] = test: Aggravation of ulcerogenic effects by 0.6H hydrochloric acid; format: in vivo; conditions: compound 2 100 mg/kg, indomethacin 20 mg/kg, voltaren 50 mg/kg, aminoguanidine 200 mg/kg, 1 hour before 0.6H HCl 5 ml/kg, after 4 hours
Description: as §1, §2, §4, §3

animal models = conditions: in vivo; cited from earlier work

N=C(N)NN [Aminoguanidine, N-aminoguanidine]
Average ulcerogenic index (4-point scale) of chronic administration of pharmacological dose (mice stomach [1]): 0 | Average ulcerogenic index (4-point scale) of combining the studied compounds with indomethacin (mice stomach [2]): 0.19 | Inhibition of inducible isoenzymes of NO-synthase [3]: equally effective in inhibiting inducible isoenzymes | Anti-inflammatory activity in LPS-induced peritonitis model, % of control ([4]; 25.0 mg/kg per os): 4.0 % of control | Anti-inflammatory activity in LPS-induced peritonitis model, % of control ([4]; 50.0 mg/kg per os): 22.0* % of control | Anti-inflammatory activity in LPS-induced peritonitis model, % of control ([4]; 75.0 mg/kg per os): 58.0* % of control | Anti-inflammatory activity in LPS-induced peritonitis model, % of control ([4]; 100.0 mg/kg per os): 78.0* % of control | Anti-inflammatory activity in LPS-induced peritonitis model, % of control ([4]; 200.0 mg/kg per os): 100.0* % of control | ED50 [4]: 70.0 ± 2.5 mg/kg | Activity towards constitutive forms of NO-synthase [5]: much less active towards constitutive forms | Anti-inflammatory activity in LPS-induced peritonitis model, % of control ([6]; 50.0 mg/kg per os): 51.1* % of control | Anti-inflammatory activity in LPS-induced peritonitis model, % of control ([6]; 100.0 mg/kg per os): 73.3* % of control | Anti-inflammatory activity in LPS-induced peritonitis model, % of control ([6]; 200.0 mg/kg per os): 91.1* % of control | Anti-inflammatory activity in carrageenan-induced peritonitis model, % of control ([7]; 50.0 mg/kg per os): 25.5* % of control | Anti-inflammatory activity in carrageenan-induced peritonitis model, % of control ([7]; 100.0 mg/kg per os): 70.6* % of control | Anti-inflammatory activity in carrageenan-induced peritonitis model, % of control ([7]; 200.0 mg/kg per os): 84.3* % of control | Average ulcerogenic index (4-point scale) of combining the studied compounds with hydrochloric acid (mice stomach [8]): 0.15 | Effect in animal models of inflammation, septic shock, endotoxin (animal models): reduces the severity of inflammation and septic shock, improves survival during endotoxin administration

COc1ccc2c(c1)c(CC(=O)O)c(C)n2C(=O)c1ccc(Cl)cc1 [Indomethacin, indomethacin]
Ulcerogenic effects of drugs of comparison (mice stomach [1]): had ulcerogenic effects | Average ulcerogenic index (4-point scale) of chronic administration of pharmacological dose (mice stomach [1]): 1.15 | Average ulcerogenic index (4-point scale) of combining the studied compounds with hydrochloric acid (mice stomach [8]): 2.4

O=C(O)Cc1ccccc1Nc1c(Cl)cccc1Cl [Voltaren, sodium diclofenac]
Ulcerogenic effects of drugs of comparison (mice stomach [1]): had ulcerogenic effects | Average ulcerogenic index (4-point scale) of chronic administration of pharmacological dose (mice stomach [1]): 0.35 | Average ulcerogenic index (4-point scale) of combining the studied compounds with indomethacin (mice stomach [2]): 2.5 | ED50 ([4]; Rattus norvegicus, po, read-out: ED50): 20 ± 1.5 mg/kg | Anti-inflammatory activity in LPS-induced peritonitis model, % of control ([4]; 10.0 mg/kg per os): 22.0 % of control | Anti-inflammatory activity in LPS-induced peritonitis model, % of control ([4]; 25.0 mg/kg per os): 65.0* % of control | Anti-inflammatory activity in LPS-induced peritonitis model, % of control ([4]; 50.0 mg/kg per os): 84.0* % of control | Anti-inflammatory activity in LPS-induced peritonitis model, % of control ([4]; 75.0 mg/kg per os): 100.0* % of control | Anti-inflammatory activity in LPS-induced peritonitis model, % of control ([6]; 25.0 mg/kg per os): 82.2* % of control | Anti-inflammatory activity in LPS-induced peritonitis model, % of control ([6]; 50.0 mg/kg per os): 95.6* % of control | Anti-inflammatory activity in LPS-induced peritonitis model, % of control ([6]; 100.0 mg/kg per os): 100.0* % of control | Anti-inflammatory activity in carrageenan-induced peritonitis model, % of control ([7]; 25.0 mg/kg per os): 80.4* % of control | Anti-inflammatory activity in carrageenan-induced peritonitis model, % of control ([7]; 50.0 mg/kg per os): 90.2* % of control | Anti-inflammatory activity in carrageenan-induced peritonitis model, % of control ([7]; 100.0 mg/kg per os): 100.0* % of control | Average ulcerogenic index (4-point scale) of combining the studied compounds with hydrochloric acid (mice stomach [8]): 0.55

From patent US8642784B2, “Biologically active compound N-[3-(4-nitrophenylamino)-indole-2-ilmethylene]aminoguanidine hydrochloride with anti-inflammatory activity” (priority 2010, dated 2014)
